Measurements as given in the supplement of paper PMC9013687.
± gives the standard deviation of the averaged measurements.

Tests used:
Danio rerio embryo [1] = system: Danio rerio embryo
Protocol: (§1)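 Zebrafish embryos (UFZ-OBI strain) were exposed from 2 hpf for 48 h (2 dpf) or 96 h (4 dpf) at 28 °C; spontaneous tail coiling was scored at 25 hpf. Morphological features from automated image analysis (FishInspector), heart rate and locomotor response were fitted with drc models. Quantal endpoints were dichotomised at 2.5 SD from controls and fitted with a log-logistic model; heart rate, pigmentation and STC were normalised to the replicate control mean. Betamethasone was tested as betamethasone dipropionate, diflorasone as diflorasone diacetate.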

Danio rerio embryo [2] = conditions: exposure time: 4 dpf
Protocol: as §1

Danio rerio embryo [3] = assay: EC50 Curvature_Increase
Protocol: as §1

Danio rerio embryo [4] = assay: EC50 Body length_Decrease
Protocol: as §1

Danio rerio embryo [5] = assay: EC50 Bladder size_Decrease; conditions: exposure time: 4 dpf
Protocol: as §1

Danio rerio embryo [6] = assay: EC50 Pericard size_Increase
Protocol: as §1

Danio rerio embryo [7] = assay: EC50 Yolk sac size_Increase; conditions: exposure time: 4 dpf
Protocol: as §1

Danio rerio embryo [8] = assay: EC50 Eye-jaw distance_Decrease; conditions: exposure time: 4 dpf
Protocol: as §1

Danio rerio embryo [9] = assay: EC50 Otolith-eye distance_Decrease; conditions: exposure time: 4 dpf
Protocol: as §1

Danio rerio embryo [10] = assay: EC10 LMR dark; higher = less potent; conditions: exposure time: 4 dpf
Protocol: as §1

Danio rerio embryo [11] = assay: EC20 LMR dark; higher = less potent; conditions: exposure time: 4 dpf
Protocol: as §1

Danio rerio embryo [12] = assay: EC20 Any effect; higher = less potent
Protocol: as §1

Danio rerio embryo [13] = assay: EC10 Any effect; higher = less potent
Protocol: as §1

Danio rerio embryo [14] = assay: EC10 Curvature_Increase; higher = less potent
Protocol: as §1

Danio rerio embryo [15] = assay: EC20 Curvature_Increase; higher = less potent
Protocol: as §1

Danio rerio embryo [16] = assay: EC20 Body length_Decrease; higher = less potent
Protocol: as §1

Danio rerio embryo [17] = assay: EC10 Body length_Decrease; higher = less potent
Protocol: as §1

Danio rerio embryo [18] = assay: EC10 Bladder size_Decrease; higher = less potent; conditions: exposure time: 4 dpf
Protocol: as §1

Danio rerio embryo [19] = assay: EC20 Bladder size_Decrease; higher = less potent; conditions: exposure time: 4 dpf
Protocol: as §1

Danio rerio embryo [20] = assay: EC20 Yolk sac size_Increase; higher = less potent; conditions: exposure time: 4 dpf
Protocol: as §1

Danio rerio embryo [21] = assay: EC20 Pericard size_Increase; higher = less potent
Protocol: as §1

Danio rerio embryo [22] = assay: EC10 Yolk sac size_Increase; higher = less potent; conditions: exposure time: 4 dpf
Protocol: as §1

Danio rerio embryo [23] = assay: EC10 Pericard size_Increase; higher = less potent
Protocol: as §1

Danio rerio embryo [24] = assay: EC20 Eye-jaw distance_Decrease; higher = less potent; conditions: exposure time: 4 dpf
Protocol: as §1

Danio rerio embryo [25] = assay: EC10 Eye-jaw distance_Decrease; higher = less potent; conditions: exposure time: 4 dpf
Protocol: as §1

Danio rerio embryo [26] = assay: EC20 Head trunk angle_Decrease; higher = less potent; conditions: exposure time: 2 dpf
Protocol: as §1

Danio rerio embryo [27] = assay: EC20 Otolith-eye distance_Decrease; higher = less potent; conditions: exposure time: 4 dpf
Protocol: as §1

Danio rerio embryo [28] = assay: EC10 Otolith-eye distance_Decrease; higher = less potent; conditions: exposure time: 4 dpf
Protocol: as §1

Danio rerio embryo [29] = assay: spontaneous tail coiling frequency (coils/min/embryo); higher = more spontaneous movement; conditions: 25 hpf
Protocol: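 Spontaneous tail coilings of zebrafish embryos exposed from 2 hpf were recorded at 24-25 hpf in 1-min videos and detected by a KNIME workflow from grey-value variance. Betamethasone was tested as the dipropionate, diflorasone as the diacetate.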

CC(C)(C)C(O)/C(=C/c1ccc(Cl)cc1Cl)n1cncn1 (centres undefined) [Diniconazole]
Conditions	EC10 Any effect [µM]	EC10 Body length Decrease [µM]	EC10 Curvature Increase [µM]	EC10 Pericard size Increase [µM]	EC20 Any effect [µM]	EC20 Body length Decrease [µM]	EC20 Curvature Increase [µM]	EC20 Pericard size Increase [µM]	EC50 Any effect [µM]	EC50 Body length Decrease [µM]	EC50 Curvature Increase [µM]	EC50 LMR ligth decrease [µM]	EC50 Pericard size Increase [µM]	EC50 Pigmentation increase [µM]	spontaneous tail coiling frequency
Danio rerio embryo [1], exposure time: 2 dpf	–	–	–	–	–	–	–	–	3.77	–	–	–	–	–	–
Danio rerio embryo [1], exposure time: 4 dpf	–	–	–	–	–	–	–	–	2.61	–	–	2.31	–	11.8	–
Danio rerio embryo [3], exposure time: 2 dpf	–	–	–	–	–	–	–	–	–	–	7.07	–	–	–	–
Danio rerio embryo [3], exposure time: 4 dpf	–	–	–	–	–	–	–	–	–	–	6.35	–	–	–	–
Danio rerio embryo [4], exposure time: 2 dpf	–	–	–	–	–	–	–	–	–	8.59	–	–	–	–	–
Danio rerio embryo [4], exposure time: 4 dpf	–	–	–	–	–	–	–	–	–	6.97	–	–	–	–	–
Danio rerio embryo [6], exposure time: 2 dpf	–	–	–	–	–	–	–	–	–	–	–	–	5.78	–	–
Danio rerio embryo [6], exposure time: 4 dpf	–	–	–	–	–	–	–	–	–	–	–	–	3.83	–	–
Danio rerio embryo [12], exposure time: 2 dpf	–	–	–	–	3	–	–	–	–	–	–	–	–	–	–
Danio rerio embryo [12], exposure time: 4 dpf	–	–	–	–	1.89	–	–	–	–	–	–	–	–	–	–
Danio rerio embryo [13], exposure time: 2 dpf	2.63	–	–	–	–	–	–	–	–	–	–	–	–	–	–
Danio rerio embryo [13], exposure time: 4 dpf	1.56	–	–	–	–	–	–	–	–	–	–	–	–	–	–
Danio rerio embryo [14], exposure time: 2 dpf	–	–	3.94	–	–	–	–	–	–	–	–	–	–	–	–
Danio rerio embryo [14], exposure time: 4 dpf	–	–	2.76	–	–	–	–	–	–	–	–	–	–	–	–
Danio rerio embryo [15], exposure time: 2 dpf	–	–	–	–	–	–	4.89	–	–	–	–	–	–	–	–
Danio rerio embryo [15], exposure time: 4 dpf	–	–	–	–	–	–	3.75	–	–	–	–	–	–	–	–
Danio rerio embryo [16], exposure time: 2 dpf	–	–	–	–	–	7.36	–	–	–	–	–	–	–	–	–
Danio rerio embryo [16], exposure time: 4 dpf	–	–	–	–	–	6.12	–	–	–	–	–	–	–	–	–
Danio rerio embryo [17], exposure time: 2 dpf	–	6.73	–	–	–	–	–	–	–	–	–	–	–	–	–
Danio rerio embryo [17], exposure time: 4 dpf	–	5.67	–	–	–	–	–	–	–	–	–	–	–	–	–
Danio rerio embryo [21], exposure time: 2 dpf	–	–	–	–	–	–	–	2.51	–	–	–	–	–	–	–
Danio rerio embryo [21], exposure time: 4 dpf	–	–	–	–	–	–	–	3.81	–	–	–	–	–	–	–
Danio rerio embryo [23], exposure time: 2 dpf	–	–	–	1.54	–	–	–	–	–	–	–	–	–	–	–
Danio rerio embryo [23], exposure time: 4 dpf	–	–	–	3.8	–	–	–	–	–	–	–	–	–	–	–
Danio rerio embryo [29], 1.13 µM	–	–	–	–	–	–	–	–	–	–	–	–	–	–	1.89
Danio rerio embryo [29], 1.7 µM	–	–	–	–	–	–	–	–	–	–	–	–	–	–	2.58 ± 0.22
Danio rerio embryo [29], 2.55 µM	–	–	–	–	–	–	–	–	–	–	–	–	–	–	2.31 ± 0.11
Danio rerio embryo [29], 3.8 µM	–	–	–	–	–	–	–	–	–	–	–	–	–	–	2.05 ± 0.38
Danio rerio embryo [29], 5.75 µM	–	–	–	–	–	–	–	–	–	–	–	–	–	–	2.87
Danio rerio embryo [29], 7.66 µM	–	–	–	–	–	–	–	–	–	–	–	–	–	–	3.42 ± 0.86
Danio rerio embryo [29], 9.2 µM	–	–	–	–	–	–	–	–	–	–	–	–	–	–	3.35

Conditions	EC10 Bladder size Decrease [µM]	EC10 Eye-jaw distance Decrease [µM]	EC10 LMR dark [µM]	EC10 Otolith-eye distance Decrease [µM]	EC10 Yolk sac size Increase [µM]	EC20 Bladder size Decrease [µM]	EC20 Eye-jaw distance Decrease [µM]	EC20 Head trunk angle Decrease [µM]	EC20 LMR dark [µM]	EC20 Otolith-eye distance Decrease [µM]	EC20 Yolk sac size Increase [µM]	EC50 Bladder size Decrease [µM]	EC50 Eye-jaw distance Decrease [µM]	EC50 LMR dark [µM]	EC50 Otolith-eye distance Decrease [µM]	EC50 Yolk sac size Increase [µM]
Danio rerio embryo [2]	–	–	–	–	–	–	–	–	–	–	–	–	–	4.3	–	–
Danio rerio embryo [5]	–	–	–	–	–	–	–	–	–	–	–	2.35	–	–	–	–
Danio rerio embryo [7]	–	–	–	–	–	–	–	–	–	–	–	–	–	–	–	3.05
Danio rerio embryo [8]	–	–	–	–	–	–	–	–	–	–	–	–	2.91	–	–	–
Danio rerio embryo [9]	–	–	–	–	–	–	–	–	–	–	–	–	–	–	5.4	–
Danio rerio embryo [10]	–	–	2.25	–	–	–	–	–	–	–	–	–	–	–	–	–
Danio rerio embryo [11]	–	–	–	–	–	–	–	–	2.86	–	–	–	–	–	–	–
Danio rerio embryo [18]	1.71	–	–	–	–	–	–	–	–	–	–	–	–	–	–	–
Danio rerio embryo [19]	–	–	–	–	–	1.92	–	–	–	–	–	–	–	–	–	–
Danio rerio embryo [20]	–	–	–	–	–	–	–	–	–	–	1.74	–	–	–	–	–
Danio rerio embryo [22]	–	–	–	–	1.26	–	–	–	–	–	–	–	–	–	–	–
Danio rerio embryo [24]	–	–	–	–	–	–	2.57	–	–	–	–	–	–	–	–	–
Danio rerio embryo [25]	–	2.39	–	–	–	–	–	–	–	–	–	–	–	–	–	–
Danio rerio embryo [26]	–	–	–	–	–	–	–	3.2	–	–	–	–	–	–	–	–
Danio rerio embryo [27]	–	–	–	–	–	–	–	–	–	4.28	–	–	–	–	–	–
Danio rerio embryo [28]	–	–	–	3.74	–	–	–	–	–	–	–	–	–	–	–	–
